Key:
Assay in all cases: PME-1 inhibitors in HeLa proteome, late-stage follow-up, selectivity assay, cell lysate, gel-based competitive ABPP, fluorescence, powder samples (AID 463149);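 note: 0% = DMSO-treated band intensity and 100% = blank gel background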
[1] = target: Protein phosphatase methylesterase 1 (Homo sapiens) (UniProt Q9Y570); conditions: HeLa soluble proteome, FP-Rh fluorescence, PME-1, inhibition, stronger effect = higher value
[2] = test system: Anti-Target PREP; conditions: HeLa soluble proteome, FP-Rh fluorescence, measured here: Anti-Target PREP, stronger effect = higher value
[3] = test system: Anti-Target CES; conditions: HeLa soluble proteome, FP-Rh fluorescence, measured here: Anti-Target CES, stronger effect = higher value
[4] = test system: Anti-Target ABHD10; conditions: HeLa soluble proteome, FP-Rh fluorescence, stronger effect = higher value
[5] = target: Fatty acid synthase (Homo sapiens) (UniProt P49327); conditions: HeLa soluble proteome, FP-Rh fluorescence, measured here: Anti-Target FAS, stronger effect = higher value
[6] = target: Acylamino-acid-releasing enzyme (Homo sapiens) (UniProt P13798); conditions: HeLa soluble proteome, FP-Rh fluorescence, measured here: Anti-Target APEH, stronger effect = higher value
Acylamino-acid-releasing enzyme (Homo sapiens), sequence (P13798 whole entry, looked up): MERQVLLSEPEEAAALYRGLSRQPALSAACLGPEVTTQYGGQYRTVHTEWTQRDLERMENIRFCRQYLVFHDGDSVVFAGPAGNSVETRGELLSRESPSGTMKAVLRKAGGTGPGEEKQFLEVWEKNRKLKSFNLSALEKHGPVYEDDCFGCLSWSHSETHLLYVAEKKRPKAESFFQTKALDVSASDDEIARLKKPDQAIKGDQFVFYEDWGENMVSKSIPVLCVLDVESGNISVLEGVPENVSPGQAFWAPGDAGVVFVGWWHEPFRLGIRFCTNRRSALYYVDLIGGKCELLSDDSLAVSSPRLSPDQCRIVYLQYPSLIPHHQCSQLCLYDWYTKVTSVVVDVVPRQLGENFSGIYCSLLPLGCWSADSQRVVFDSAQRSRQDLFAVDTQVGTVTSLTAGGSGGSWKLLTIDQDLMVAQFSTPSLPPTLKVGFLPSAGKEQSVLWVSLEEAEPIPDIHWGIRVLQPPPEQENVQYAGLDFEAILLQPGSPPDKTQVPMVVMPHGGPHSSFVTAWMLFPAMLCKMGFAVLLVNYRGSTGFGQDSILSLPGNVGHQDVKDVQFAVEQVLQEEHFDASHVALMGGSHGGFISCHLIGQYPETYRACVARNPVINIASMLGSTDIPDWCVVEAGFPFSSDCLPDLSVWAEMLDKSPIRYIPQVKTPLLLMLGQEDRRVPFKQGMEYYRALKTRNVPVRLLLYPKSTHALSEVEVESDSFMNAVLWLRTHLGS

Fatty acid synthase (Homo sapiens), sequence (P49327 whole entry, looked up): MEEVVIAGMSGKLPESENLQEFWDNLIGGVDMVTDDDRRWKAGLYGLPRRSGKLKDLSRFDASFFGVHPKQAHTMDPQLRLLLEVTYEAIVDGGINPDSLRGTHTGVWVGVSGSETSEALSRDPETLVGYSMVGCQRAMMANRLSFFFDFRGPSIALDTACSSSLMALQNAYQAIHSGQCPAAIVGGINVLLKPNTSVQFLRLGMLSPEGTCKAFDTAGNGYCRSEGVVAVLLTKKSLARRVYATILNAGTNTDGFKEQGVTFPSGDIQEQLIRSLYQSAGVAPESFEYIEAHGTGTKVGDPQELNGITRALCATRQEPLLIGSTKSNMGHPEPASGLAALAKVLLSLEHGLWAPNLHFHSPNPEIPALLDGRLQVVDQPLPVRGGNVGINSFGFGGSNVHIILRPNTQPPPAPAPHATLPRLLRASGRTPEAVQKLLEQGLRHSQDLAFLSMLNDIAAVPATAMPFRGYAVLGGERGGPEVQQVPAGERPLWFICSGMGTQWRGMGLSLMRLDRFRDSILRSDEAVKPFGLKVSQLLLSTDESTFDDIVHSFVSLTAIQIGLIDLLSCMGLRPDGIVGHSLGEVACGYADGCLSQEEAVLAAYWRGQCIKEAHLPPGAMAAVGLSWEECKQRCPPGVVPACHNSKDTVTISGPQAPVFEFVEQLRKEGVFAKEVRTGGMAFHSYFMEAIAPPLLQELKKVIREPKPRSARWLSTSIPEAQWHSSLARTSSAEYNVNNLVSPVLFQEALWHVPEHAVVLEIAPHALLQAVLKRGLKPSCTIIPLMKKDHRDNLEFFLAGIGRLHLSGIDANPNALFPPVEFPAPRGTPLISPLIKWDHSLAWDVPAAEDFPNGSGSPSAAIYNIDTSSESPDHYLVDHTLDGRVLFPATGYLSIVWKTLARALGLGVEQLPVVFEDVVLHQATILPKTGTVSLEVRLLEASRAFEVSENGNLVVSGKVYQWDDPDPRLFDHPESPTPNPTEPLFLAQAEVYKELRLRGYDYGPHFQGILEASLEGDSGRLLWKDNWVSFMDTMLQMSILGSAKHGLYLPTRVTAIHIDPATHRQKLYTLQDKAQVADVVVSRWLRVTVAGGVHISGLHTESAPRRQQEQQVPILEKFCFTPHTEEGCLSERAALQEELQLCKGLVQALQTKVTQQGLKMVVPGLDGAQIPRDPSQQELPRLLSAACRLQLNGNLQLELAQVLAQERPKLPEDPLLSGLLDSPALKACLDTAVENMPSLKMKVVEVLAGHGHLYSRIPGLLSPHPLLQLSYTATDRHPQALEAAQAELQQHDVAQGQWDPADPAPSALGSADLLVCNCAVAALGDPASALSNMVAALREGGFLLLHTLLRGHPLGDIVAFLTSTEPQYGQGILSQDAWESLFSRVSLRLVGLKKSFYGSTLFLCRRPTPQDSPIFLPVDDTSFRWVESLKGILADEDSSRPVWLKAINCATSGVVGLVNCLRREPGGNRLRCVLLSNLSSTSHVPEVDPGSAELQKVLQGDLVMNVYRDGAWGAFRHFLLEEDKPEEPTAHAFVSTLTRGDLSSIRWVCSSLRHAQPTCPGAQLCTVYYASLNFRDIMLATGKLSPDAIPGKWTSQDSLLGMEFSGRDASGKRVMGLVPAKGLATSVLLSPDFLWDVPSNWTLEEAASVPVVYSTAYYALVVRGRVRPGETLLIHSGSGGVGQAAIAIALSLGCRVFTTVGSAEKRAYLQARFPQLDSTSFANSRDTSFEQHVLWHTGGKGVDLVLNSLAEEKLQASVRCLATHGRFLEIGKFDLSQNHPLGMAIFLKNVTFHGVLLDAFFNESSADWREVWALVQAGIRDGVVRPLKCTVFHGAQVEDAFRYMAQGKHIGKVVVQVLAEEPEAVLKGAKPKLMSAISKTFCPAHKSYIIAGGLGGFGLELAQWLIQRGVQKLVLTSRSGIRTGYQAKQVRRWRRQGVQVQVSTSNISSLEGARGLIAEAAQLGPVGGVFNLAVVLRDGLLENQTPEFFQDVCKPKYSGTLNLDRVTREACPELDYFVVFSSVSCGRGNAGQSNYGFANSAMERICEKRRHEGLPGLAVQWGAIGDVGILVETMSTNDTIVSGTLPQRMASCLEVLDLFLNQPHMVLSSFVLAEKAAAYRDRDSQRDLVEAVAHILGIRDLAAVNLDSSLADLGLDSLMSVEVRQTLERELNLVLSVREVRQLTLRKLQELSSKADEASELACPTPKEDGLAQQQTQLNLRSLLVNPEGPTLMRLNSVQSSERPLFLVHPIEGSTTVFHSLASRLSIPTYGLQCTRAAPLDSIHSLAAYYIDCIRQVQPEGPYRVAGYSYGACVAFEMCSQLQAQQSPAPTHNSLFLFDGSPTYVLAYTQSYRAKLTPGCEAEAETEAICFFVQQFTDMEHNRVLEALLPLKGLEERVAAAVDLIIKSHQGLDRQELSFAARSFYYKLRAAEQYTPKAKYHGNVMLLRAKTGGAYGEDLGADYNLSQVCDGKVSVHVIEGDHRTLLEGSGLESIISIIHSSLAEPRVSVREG
Protein phosphatase methylesterase 1 (Homo sapiens), sequence (Q9Y570 whole entry, looked up): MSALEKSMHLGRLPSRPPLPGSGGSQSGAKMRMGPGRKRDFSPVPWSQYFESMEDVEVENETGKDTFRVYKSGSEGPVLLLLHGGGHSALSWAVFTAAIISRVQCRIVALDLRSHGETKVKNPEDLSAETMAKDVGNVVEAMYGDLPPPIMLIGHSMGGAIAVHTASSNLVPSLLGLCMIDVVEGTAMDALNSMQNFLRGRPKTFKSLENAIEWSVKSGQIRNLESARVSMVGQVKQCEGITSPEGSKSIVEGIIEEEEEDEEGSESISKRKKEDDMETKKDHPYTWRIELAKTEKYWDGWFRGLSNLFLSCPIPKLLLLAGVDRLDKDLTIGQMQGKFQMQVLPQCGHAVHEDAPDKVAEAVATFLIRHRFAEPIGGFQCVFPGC

inhibition ([1]; at 1 µM): 75%
inhibition ([1]; at 20 µM): 100%
inhibition ([2]; at 1 µM): 0%
inhibition ([2]; at 20 µM): 0%
inhibition ([3]; at 1 µM): > 50%
inhibition ([3]; at 20 µM): > 50%
inhibition ([4]; measured here: Anti-Target ABHD10, at 1 µM): 0%
inhibition ([4]; measured here: Anti-Target ABHD10, at 20 µM): 0%
inhibition ([5]; at 1 µM): 0%
inhibition ([5]; at 20 µM): > 50%
inhibition ([6]; at 1 µM): 0%
inhibition ([6]; at 20 µM): > 50%
SMILES: COC(=O)N1C(=O)[C@](Cc2ccccc2)(c2ccccc2)N1C(=O)OC

— PubChem BioAssay AID463149 (The Scripps Research Institute Molecular Screening Center, 2010)
